± gives the expanded uncertainty stated by the source.
Conditions: Closed cell (Static) method

SMILES: O=C(O)c1ccccc1 [benzoic acid]
- vapor or sublimation pressure (297.67 K, Crystal): 0.000108 ± 0.0001 kPa
- vapor or sublimation pressure (299.96 K, Crystal): 0.000142 ± 0.0001 kPa
- vapor or sublimation pressure (300.03 K, Crystal): 0.000143 ± 0.0001 kPa
- vapor or sublimation pressure (302.51 K, Crystal): 0.000193 ± 0.0001 kPa
- vapor or sublimation pressure (304.75 K, Crystal): 0.00025 ± 0.0001 kPa
- vapor or sublimation pressure (307.27 K, Crystal): 0.000335 ± 0.0001 kPa
- vapor or sublimation pressure (309.63 K, Crystal): 0.000436 ± 0.00011 kPa
- vapor or sublimation pressure (312.08 K, Crystal): 0.000573 ± 0.00011 kPa
- vapor or sublimation pressure (314.4 K, Crystal): 0.000738 ± 0.00011 kPa
- vapor or sublimation pressure (314.59 K, Crystal): 0.000754 ± 0.00011 kPa
- vapor or sublimation pressure (316.91 K, Crystal): 0.000969 ± 0.00011 kPa
- vapor or sublimation pressure (319.48 K, Crystal): 0.00127 ± 0.00012 kPa
- vapor or sublimation pressure (321.91 K, Crystal): 0.001641 ± 0.00013 kPa
- vapor or sublimation pressure (324.39 K, Crystal): 0.002118 ± 0.00014 kPa
- vapor or sublimation pressure (326.76 K, Crystal): 0.002676 ± 0.00015 kPa
- vapor or sublimation pressure (329.2 K, Crystal): 0.003432 ± 0.00018 kPa
- vapor or sublimation pressure (331.62 K, Crystal): 0.004361 ± 0.00021 kPa
- vapor or sublimation pressure (334.07 K, Crystal): 0.005542 ± 0.00025 kPa
- vapor or sublimation pressure (336.46 K, Crystal): 0.006934 ± 0.0003 kPa
- vapor or sublimation pressure (338.98 K, Crystal): 0.008733 ± 0.00037 kPa

SMILES: O=C(c1ccccc1)c1ccccc1 [benzophenone]
- vapor or sublimation pressure (300.37 K, Crystal): 0.000119 ± 0.0001 kPa
- vapor or sublimation pressure (302.88 K, Crystal): 0.000161 ± 0.0001 kPa
- vapor or sublimation pressure (302.91 K, Liquid): 0.000237 ± 0.0001 kPa
- vapor or sublimation pressure (305.39 K, Crystal): 0.00022 ± 0.0001 kPa
- vapor or sublimation pressure (305.41 K, Liquid): 0.000306 ± 0.0001 kPa
- vapor or sublimation pressure (307.9 K, Crystal): 0.000302 ± 0.0001 kPa
- vapor or sublimation pressure (307.91 K, Liquid): 0.000394 ± 0.0001 kPa
- vapor or sublimation pressure (310.26 K, Crystal): 0.000401 ± 0.00011 kPa
- vapor or sublimation pressure (310.41 K, Liquid): 0.000503 ± 0.00011 kPa
- vapor or sublimation pressure (312.75 K, Crystal): 0.000535 ± 0.00011 kPa
- vapor or sublimation pressure (315.24 K, Crystal): 0.000708 ± 0.00011 kPa
- vapor or sublimation pressure (317.73 K, Crystal): 0.000939 ± 0.00011 kPa
- vapor or sublimation pressure (318.01 K, Liquid): 0.001028 ± 0.00012 kPa
- vapor or sublimation pressure (320.23 K, Crystal): 0.001239 ± 0.00012 kPa
- vapor or sublimation pressure (320.51 K, Liquid): 0.001288 ± 0.00012 kPa
- vapor or sublimation pressure (323.09 K, Liquid): 0.001615 ± 0.00013 kPa
- vapor or sublimation pressure (325.59 K, Liquid): 0.002005 ± 0.00014 kPa
- vapor or sublimation pressure (328.11 K, Liquid): 0.002469 ± 0.00015 kPa
- vapor or sublimation pressure (330.61 K, Liquid): 0.003064 ± 0.00017 kPa
- vapor or sublimation pressure (333.13 K, Liquid): 0.003771 ± 0.00019 kPa
- vapor or sublimation pressure (335.64 K, Liquid): 0.00461 ± 0.00022 kPa
- vapor or sublimation pressure (338.16 K, Liquid): 0.005616 ± 0.00025 kPa
- vapor or sublimation pressure (340.68 K, Liquid): 0.006814 ± 0.0003 kPa
- vapor or sublimation pressure (343.21 K, Liquid): 0.008284 ± 0.00035 kPa
- vapor or sublimation pressure (345.73 K, Liquid): 0.009949 ± 0.00041 kPa
- vapor or sublimation pressure (348.24 K, Liquid): 0.01196 ± 0.0005 kPa
- vapor or sublimation pressure (350.76 K, Liquid): 0.01435 ± 0.00056 kPa
- vapor or sublimation pressure (353.28 K, Liquid): 0.01704 ± 0.00061 kPa
- vapor or sublimation pressure (355.79 K, Liquid): 0.02035 ± 0.00067 kPa
- vapor or sublimation pressure (358.31 K, Liquid): 0.02415 ± 0.00073 kPa
- vapor or sublimation pressure (360.82 K, Liquid): 0.02859 ± 0.00081 kPa
- vapor or sublimation pressure (363.34 K, Liquid): 0.03356 ± 0.00091 kPa
- vapor or sublimation pressure (368.37 K, Liquid): 0.04652 ± 0.0011 kPa
- vapor or sublimation pressure (370.89 K, Liquid): 0.0543 ± 0.0013 kPa

SMILES: [CH]1C=CC=C1.[CH]1C=CC=C1.[Fe] [ferrocene]
- vapor or sublimation pressure (280.91 K, Crystal): 0.000154 ± 9.4e-05 kPa
- vapor or sublimation pressure (282.03 K, Crystal): 0.000176 ± 9.5e-05 kPa
- vapor or sublimation pressure (283.33 K, Crystal): 0.000202 ± 9.5e-05 kPa
- vapor or sublimation pressure (284.44 K, Crystal): 0.000229 ± 9.6e-05 kPa
- vapor or sublimation pressure (285.74 K, Crystal): 0.000264 ± 9.6e-05 kPa
- vapor or sublimation pressure (286.87 K, Crystal): 0.000298 ± 9.7e-05 kPa
- vapor or sublimation pressure (288.14 K, Crystal): 0.000344 ± 9.8e-05 kPa
- vapor or sublimation pressure (289.31 K, Crystal): 0.000388 ± 9.8e-05 kPa
- vapor or sublimation pressure (290.59 K, Crystal): 0.000447 ± 9.9e-05 kPa
- vapor or sublimation pressure (291.71 K, Crystal): 0.000501 ± 0.0001 kPa
- vapor or sublimation pressure (293.03 K, Crystal): 0.000576 ± 0.0001 kPa
- vapor or sublimation pressure (294.12 K, Crystal): 0.000646 ± 0.0001 kPa
- vapor or sublimation pressure (295.42 K, Crystal): 0.000741 ± 0.0001 kPa
- vapor or sublimation pressure (296.52 K, Crystal): 0.000829 ± 0.00011 kPa
- vapor or sublimation pressure (297.8 K, Crystal): 0.000942 ± 0.00011 kPa
- vapor or sublimation pressure (297.83 K, Crystal): 0.000947 ± 0.00011 kPa
- vapor or sublimation pressure (300.23 K, Crystal): 0.001197 ± 0.00011 kPa
- vapor or sublimation pressure (300.35 K, Crystal): 0.001218 ± 0.00011 kPa
- vapor or sublimation pressure (302.84 K, Crystal): 0.001542 ± 0.00012 kPa
- vapor or sublimation pressure (304.06 K, Crystal): 0.001742 ± 0.00013 kPa
- vapor or sublimation pressure (304.13 K, Crystal): 0.001753 ± 0.00013 kPa
- vapor or sublimation pressure (305.54 K, Crystal): 0.002007 ± 0.00013 kPa
- vapor or sublimation pressure (307.9 K, Crystal): 0.002499 ± 0.00015 kPa
- vapor or sublimation pressure (311.31 K, Crystal): 0.003428 ± 0.00017 kPa
- vapor or sublimation pressure (312.99 K, Crystal): 0.00399 ± 0.00019 kPa
- vapor or sublimation pressure (315.35 K, Crystal): 0.004949 ± 0.00023 kPa
- vapor or sublimation pressure (316.48 K, Crystal): 0.005493 ± 0.00025 kPa
- vapor or sublimation pressure (317.93 K, Crystal): 0.006236 ± 0.00027 kPa
- vapor or sublimation pressure (319.06 K, Crystal): 0.006868 ± 0.0003 kPa
- vapor or sublimation pressure (320.29 K, Crystal): 0.007672 ± 0.00033 kPa
- vapor or sublimation pressure (320.95 K, Crystal): 0.008091 ± 0.00034 kPa
- vapor or sublimation pressure (321.69 K, Crystal): 0.008661 ± 0.00036 kPa
- vapor or sublimation pressure (322.63 K, Crystal): 0.00937 ± 0.00039 kPa
- vapor or sublimation pressure (324 K, Crystal): 0.01056 ± 0.00045 kPa
- vapor or sublimation pressure (325.29 K, Crystal): 0.01176 ± 0.0005 kPa
- vapor or sublimation pressure (325.31 K, Crystal): 0.0117 ± 0.00049 kPa
- vapor or sublimation pressure (327.79 K, Crystal): 0.01447 ± 0.00056 kPa
- vapor or sublimation pressure (330.22 K, Crystal): 0.01764 ± 0.00062 kPa
- vapor or sublimation pressure (331.21 K, Crystal): 0.01908 ± 0.00065 kPa
- vapor or sublimation pressure (332.72 K, Crystal): 0.0215 ± 0.00069 kPa
- vapor or sublimation pressure (335.15 K, Crystal): 0.02616 ± 0.00077 kPa
- vapor or sublimation pressure (336.4 K, Crystal): 0.02867 ± 0.00082 kPa
- vapor or sublimation pressure (337.89 K, Crystal): 0.03234 ± 0.00089 kPa
- vapor or sublimation pressure (340.33 K, Crystal): 0.03875 ± 0.001 kPa
- vapor or sublimation pressure (341.35 K, Crystal): 0.04176 ± 0.0011 kPa
- vapor or sublimation pressure (342.83 K, Crystal): 0.04685 ± 0.0012 kPa
- vapor or sublimation pressure (345.27 K, Crystal): 0.05631 ± 0.0013 kPa
- vapor or sublimation pressure (346.28 K, Crystal): 0.06042 ± 0.0014 kPa
- vapor or sublimation pressure (347.77 K, Crystal): 0.06739 ± 0.0015 kPa
- vapor or sublimation pressure (350.23 K, Crystal): 0.08052 ± 0.0018 kPa
- vapor or sublimation pressure (351.2 K, Crystal): 0.08649 ± 0.0019 kPa
- vapor or sublimation pressure (352.7 K, Crystal): 0.09579 ± 0.0021 kPa
- vapor or sublimation pressure (355.17 K, Crystal): 0.1142 ± 0.0024 kPa
- vapor or sublimation pressure (357.88 K, Crystal): 0.1377 ± 0.0026 kPa
- vapor or sublimation pressure (360.37 K, Crystal): 0.1622 ± 0.0029 kPa
- vapor or sublimation pressure (362.8 K, Crystal): 0.1914 ± 0.0033 kPa
- vapor or sublimation pressure (365.3 K, Crystal): 0.2244 ± 0.0037 kPa
- vapor or sublimation pressure (367.75 K, Crystal): 0.2639 ± 0.0043 kPa
- vapor or sublimation pressure (370.2 K, Crystal): 0.3093 ± 0.0049 kPa
- vapor or sublimation pressure (372.93 K, Crystal): 0.3682 ± 0.0056 kPa
- vapor or sublimation pressure (375.4 K, Crystal): 0.425 ± 0.0064 kPa
- vapor or sublimation pressure (377.87 K, Crystal): 0.4978 ± 0.0074 kPa
- vapor or sublimation pressure (380.32 K, Crystal): 0.5748 ± 0.0084 kPa
- vapor or sublimation pressure (382.8 K, Crystal): 0.6695 ± 0.0097 kPa
- vapor or sublimation pressure (385.27 K, Crystal): 0.7725 ± 0.011 kPa
- vapor or sublimation pressure (387.75 K, Crystal): 0.8978 ± 0.013 kPa
- vapor or sublimation pressure (390.22 K, Crystal): 1.03 ± 0.014 kPa
- vapor or sublimation pressure (392.69 K, Crystal): 1.185 ± 0.016 kPa

SMILES: c1ccc2ccccc2c1 [naphthalene]
- vapor or sublimation pressure (297.72 K, Crystal): 0.01042 ± 0.00045 kPa
- vapor or sublimation pressure (300.06 K, Crystal): 0.0131 ± 0.00054 kPa
- vapor or sublimation pressure (302.47 K, Crystal): 0.01651 ± 0.0006 kPa
- vapor or sublimation pressure (304.88 K, Crystal): 0.02077 ± 0.00068 kPa
- vapor or sublimation pressure (307.27 K, Crystal): 0.02598 ± 0.00078 kPa
- vapor or sublimation pressure (309.69 K, Crystal): 0.03247 ± 0.00091 kPa
- vapor or sublimation pressure (312.35 K, Crystal): 0.04107 ± 0.0011 kPa
- vapor or sublimation pressure (314.78 K, Crystal): 0.05102 ± 0.0013 kPa
- vapor or sublimation pressure (317.21 K, Crystal): 0.06281 ± 0.0015 kPa
- vapor or sublimation pressure (319.66 K, Crystal): 0.0774 ± 0.0018 kPa
- vapor or sublimation pressure (322.08 K, Crystal): 0.0949 ± 0.0021 kPa
- vapor or sublimation pressure (324.51 K, Crystal): 0.1161 ± 0.0025 kPa
- vapor or sublimation pressure (326.97 K, Crystal): 0.1415 ± 0.0027 kPa

From the NIST ThermoML archive (doi:10.1016/j.fluid.2014.11.026)
